In patent EP1117659B1, “SUBSTITUTED 3-CYANOQUINOLINES AS PROTEIN TYROSINE KINASES INHIBITORS” (Wyeth Holdings Corporation, priority 1998, dated 2000):
Converted amounts (≈) assume the structure as drawn. “And” between values parts separate entries of the source, which are not always exact repeats. Equal entries are not always repeated.

Columns and labels:
[1] = target: Recombinant human MEK 1 (MAPKK) / recombinant human ERK2 (MAPK) (Mek-Erk) (Homo sapiens, UniProt P28482+Q02750); assay: Mitogen Activated Protein Kinase (MAPK) assay, two component coupled Mek-Erk test; type: biochemical; settings: read-out: Mek-Erk
[2] = target: Epithelial Cell Kinase (ECK) (Homo sapiens, UniProt P29317); assay: Inhibition of Epithelial Cell Kinase (ECK), immobilized biotinylated peptide, HRP anti-phosphotyrosine readout; type: biochemical; settings: IC50, substrate phosphorylation
Sequence of Epithelial Cell Kinase (ECK) (P29317 24-976, species assumed): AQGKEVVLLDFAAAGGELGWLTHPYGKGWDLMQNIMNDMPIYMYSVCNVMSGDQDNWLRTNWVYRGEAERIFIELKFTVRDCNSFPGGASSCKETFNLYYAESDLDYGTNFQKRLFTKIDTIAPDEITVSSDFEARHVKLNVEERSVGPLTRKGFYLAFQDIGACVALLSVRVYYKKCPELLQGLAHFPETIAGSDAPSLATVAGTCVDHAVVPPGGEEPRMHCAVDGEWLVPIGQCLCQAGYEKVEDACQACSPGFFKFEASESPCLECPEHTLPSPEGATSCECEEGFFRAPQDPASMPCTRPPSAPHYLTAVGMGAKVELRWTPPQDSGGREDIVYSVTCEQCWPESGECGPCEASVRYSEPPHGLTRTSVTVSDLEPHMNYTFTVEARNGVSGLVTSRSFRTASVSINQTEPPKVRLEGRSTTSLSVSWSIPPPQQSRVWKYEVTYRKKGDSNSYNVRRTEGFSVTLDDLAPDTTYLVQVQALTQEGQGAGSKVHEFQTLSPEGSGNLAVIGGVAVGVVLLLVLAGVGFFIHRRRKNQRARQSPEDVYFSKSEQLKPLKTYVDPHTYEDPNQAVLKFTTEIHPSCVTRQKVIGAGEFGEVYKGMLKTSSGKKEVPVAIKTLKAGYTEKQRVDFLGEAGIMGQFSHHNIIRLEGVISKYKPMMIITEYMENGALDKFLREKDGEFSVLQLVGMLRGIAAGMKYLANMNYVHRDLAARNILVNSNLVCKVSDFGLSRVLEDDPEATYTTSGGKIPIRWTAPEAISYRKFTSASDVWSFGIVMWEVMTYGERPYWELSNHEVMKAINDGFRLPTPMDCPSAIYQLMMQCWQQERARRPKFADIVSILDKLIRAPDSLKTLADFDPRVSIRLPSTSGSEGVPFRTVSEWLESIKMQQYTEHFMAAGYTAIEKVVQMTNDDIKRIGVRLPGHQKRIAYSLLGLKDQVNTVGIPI
Protocol: In this standard pharmacological test procedure, a biotinylated peptide substrate is first immobilized on neutravidin-coated microtiter plates. The test drug, the Epithelial Cell Kinase (ECK), Mg^++, sodium vanadate (a protein tyrosine phosphatase inhibitor), and an appropriate buffer to maintain pH (7.2) are then added to the immobilized substrate-containing microtiter wells. ATP is then added to initiate phosphorylation. After incubation, the assay plates are washed with a suitable buffer leaving behind phosphorylated peptide which is exposed to horse radish peroxidase (HRP)-conjugated anti-phosphotyrosine monoclonal antibody. The antibody-treated plates are washed again and the HRP activity in individual wells is quantified as a reflection of degree of substrate phosphorylation. […] Multiple entries for a given compound indication it was tested multiple times.

A431 = assay: Inhibition of Cancer Cell Growth as Measured by Cell Number (Sulforhodamine B); type: cell-based, Human; settings: 48 hours exposure; for IC50: Homo sapiens, A-431, 48 h
Protocol: (§1) Human tumor cell lines were plated in 96-well plates (250 µl/well, 1-6 x 10^4 cells/ml) in RPMI 1640 medium, containing 5% FBS (Fetal Bovine Serum). […] After 48 hours exposure to test compounds, cells were fixed with trichloroacetic acid, and stained with Sulforhodamine B. After washing with trichloroacetic acid, bound dye was solubilized in 10 mM Tris base and optical density was determined using plate reader. Under conditions of the assay the optical density is proportional to the number of cells in the well. […] The test procedure is described in details by Philip Skehan et. al, J.Natl. Canc. Inst., 82, 1107-1112 (1990). […] Information about some of the cell lines used in these test procedures is available from the American Type Tissue Collection: Cell Lines and Hybridomas, 1994 Reference Guide, 8th Edition.

SW620 = assay: as above; type: cell-based, Human; settings: 48 hours exposure; for IC50: Homo sapiens, SW-620, 48 h
Protocol: as §1

SK-BR3 = assay: as above; type: cell-based, Human; settings: 48 hours exposure; for IC50: Homo sapiens, SK-BR-3, 48 h
Protocol: as §1

MDA-MB-435 = assay: as above; type: cell-based, Human; settings: 48 hours exposure; for IC50: Homo sapiens, MDA-MB-435, 48 h
Protocol: as §1

[3] = target: T1, Kinase insert Domain containing Receptor (KDR: the catalytic domain of the VEGF receptor) (Homo sapiens, UniProt P35968); assay: Inhibition of Kinase insert Domain containing Receptor (KDR), radioactive phosphorylation of Glu:Tyr copolymer; type: biochemical; settings: IC50, substrate phosphorylation
T1 construct: KDR: the catalytic domain of the VEGF receptor
T1 sequence (P35968 834-1162 limits assumed): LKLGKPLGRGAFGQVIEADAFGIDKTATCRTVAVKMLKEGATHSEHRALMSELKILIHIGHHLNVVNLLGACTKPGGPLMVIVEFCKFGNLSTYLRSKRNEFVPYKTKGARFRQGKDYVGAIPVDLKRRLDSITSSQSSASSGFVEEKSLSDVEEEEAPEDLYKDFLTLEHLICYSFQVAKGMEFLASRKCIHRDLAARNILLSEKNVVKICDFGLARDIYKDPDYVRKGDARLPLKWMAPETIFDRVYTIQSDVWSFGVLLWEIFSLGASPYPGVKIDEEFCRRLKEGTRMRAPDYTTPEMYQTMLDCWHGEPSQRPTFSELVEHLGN
Protocol: In this standard pharmacological test procedure, KDR protein is mixed, in the presence or absence of a inhibitor compound, with a substrate peptide to be phosphorylated (a copolymer of glutamic acid and tyrosine, E:Y :: 4:1) and other cofactors such as Mg^++ and sodium vanadate (a protein tyrosine phosphatase inhibitor) in an appropriate buffer to maintain pH (7.2). ATP and a radioactive tracer (either P^32- or P^33- labeled ATP) is then add to initiate phosphorylation. After incubation, the radioactive phosphate associated with the acid-insoluble fraction of the assay mixture is then quantified as reflection of substrate phosphorylation. […] Multiple entries for a given compound indication it was tested multiple times.

3T3 = assay: Inhibition of Cancer Cell Growth as Measured by Cell Number (Sulforhodamine B); type: cell-based; settings: 48 hours exposure; for IC50: Mus musculus, NIH3T3
Protocol: as §1

3T3/c-erbb2 = assay: as above; type: cell-based; settings: 48 hours exposure
Protocol: as §1

[4] = target: T2, epidermal growth factor receptor kinase (EGF-R Kinase, recombinant enzyme; His-tagged cytoplasmic domain of EGFR) (Homo sapiens, UniProt P00533); assay: Inhibition of Epidermal Growth Factor Receptor Kinase (EGF-R) using recombinant enzyme, RR-SRC peptide phosphorylation, 33P-ATP; type: biochemical; settings: for IC50: recombinant enzyme, 90 min at room temperature
T2 construct: EGFR cDNA encoding amino acids 645 - 1186 preceded by Met-Ala-(His)6; Met-Ala-(His)6 (N); made in house; host or cells: Sf9 insect cells, recombinant baculovirus vHcEGFR52
T2 sequence (P00533 669-1210): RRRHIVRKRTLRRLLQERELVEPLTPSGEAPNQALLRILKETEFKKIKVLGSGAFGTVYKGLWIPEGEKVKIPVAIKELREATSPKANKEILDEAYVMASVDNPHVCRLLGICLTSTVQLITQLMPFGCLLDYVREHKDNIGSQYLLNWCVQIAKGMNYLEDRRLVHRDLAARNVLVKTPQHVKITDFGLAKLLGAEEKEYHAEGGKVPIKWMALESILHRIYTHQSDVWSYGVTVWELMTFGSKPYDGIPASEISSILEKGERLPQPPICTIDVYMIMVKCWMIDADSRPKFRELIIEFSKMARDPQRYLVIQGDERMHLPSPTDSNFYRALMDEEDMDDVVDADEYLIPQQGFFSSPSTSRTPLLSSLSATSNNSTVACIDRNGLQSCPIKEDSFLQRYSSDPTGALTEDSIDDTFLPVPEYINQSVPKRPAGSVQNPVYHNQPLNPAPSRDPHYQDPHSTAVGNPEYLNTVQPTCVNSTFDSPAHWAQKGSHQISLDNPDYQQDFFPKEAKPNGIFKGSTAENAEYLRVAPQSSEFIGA
Protocol: Representative test compounds were evaluated for their ability to inhibit the phosphorylation of the tyrosine residue of a peptide substrate catalyzed by the enzyme epidermal growth factor receptor kinase. The peptide substrate (RR-SRC) has the sequence arg-arg-leu-ile-glu-asp-ala-glu-tyr-ala-ala-arg-gly. The enzyme used in this test procedure is the His-tagged cytoplasmic domain of EGFR. A recombinant baculovirus (vHcEGFR52) was constructed containing the EGFR cDNA encoding amino acids 645 - 1186 preceded by Met-Ala-(His)6. Sf9 cells in 100 mm plates were infected at an moi of 10 pfu/cell and cells were harvested 48 h post infection. A cytoplasmic extract was prepared using 1% Triton X-100 and applied to Ni-NTA column. After washing the column with 20 mM imidazole, HcEGFR was eluted with 250 mM imidazole (in 50 mM Na2HPO4, pH 8.0, 300 mM NaCl). Fractions collected were dialyzed against 10 mM HEPES, pH 7.0, 50 mM NaCl, 10% glycerol, lug/mL antipain and leupeptin and 0.1 mM Pefabloc SC. The protein was frozen in dry ice/methanol and stored -70°C.
Test compounds were made into 10 mg/mL stock solutions in 100% dimethylsulfoxide (DMSO). Prior to experiment, stock solutions were diluted to 500 uM with 100% DMSO and then serially diluted to the desired concentration with HEPES buffer (30 mM HEPES pH 7.4).
For the enzyme reaction, 10 uL of each inhibitor (at various concentrations) were added to each well of a 96-well plate. To this was added 3 uL of enzyme (1:10 dilution in 10mM HEPES, pH 7.4 for final cone. of 1:120). This was allowed to sit for 10 min on ice and was followed by the addition of 5 ul peptide (80 uM final cone.), 10ul of 4X Buffer (Table A), 0.25 uL ^33P-ATP and 12 uL H2O. The reaction was allowed to run for 90 min at room temperature and was followed by spotting the entire volume on to precut P81 filter papers. The filter discs were washed 2X with 0.5% phosphoric acid and radioactivity was measured using a liquid scintillation counter.
The inhibition data for representative compounds of the invention are shown below in TABLE 1. […] The % inhibition of the test compound was determined for at least three different concentrations and the IC50 value was evaluated from the dose response curve. […] CPM(control) is in units of counts per minute and was a number expressing the amount of radiolabled ATP (γ-^33P) incorporated into the RR-SRC peptide substrate by the enzyme after 90 minutes at room temperature in the absence of test compound as measured by liquid scintillation counting. The CPM values were corrected for the background counts produced by ATP in the absence of the enzymatic reaction. […]

A2780 = assay: Inhibition of Cancer Cell Growth as Measured by Cell Number (Sulforhodamine B); type: cell-based; settings: Homo sapiens, 48 hours exposure
Protocol: as §1

DDP = assay: as above; type: cell-based; settings: Homo sapiens; 48 hours exposure
Protocol: as §1

| Molecule | IC50 [1] | IC50 [2] [µM] | IC50 (A431) [µg/mL] | IC50 (SW620) [µg/mL] | IC50 (SK-BR3) [µg/mL] | IC50 (MDA-MB-435) [µg/mL] | IC50 [3] | IC50 (A2780) [µg/mL] | IC50 (DDP) [µg/mL] | IC50 (3T3) [µg/mL] | IC50 (3T3/c-erbb2) [µg/mL] | inhibition at 0.5 µM ([4]; read-out: %Inh @ 0.5 µM) [%] | IC50 [4] [µM] | IC50 µg/mL A431 (A431) [µg/mL] | IC50 µg/mL SW620 (SW620) [µg/mL] | IC50 µg/mL SK-BR3 (SK-BR3) [µg/mL] | IC50 µg/mL MDA-MB-435 (MDA-MB-435) [µg/mL] | IC50 µg/mL 3T3 (3T3) [µg/mL] | IC50 µg/mL 3T3/c-erbb2 (3T3/c-erbb2) [µg/mL] |
| --- | --- | --- | --- | --- | --- | --- | --- | --- | --- | --- | --- | --- | --- | --- | --- | --- | --- | --- | --- |
| CCOc1cc2ncc(C#N)c(Nc3ccc4c(c3)C(=O)NCC(=O)N4C)c2cc1OCC [Example 127, 6,7-Diethoxy-4-(1-methyl-2,5-dioxo-2,3,4,5-tetrahydro-1H-benzo[e][1,4]diazepin-7-ylamino)-quinoline-3-carbonitrile] | > 100 µM | > 44.9 | > 5 | > 5 | > 5 | > 5 | > 67.3 µM | – | – | > 5 | > 5 | 25 | > 1 | – | – | – | – | – | – |
| COc1cc2ncc(C#N)c(Nc3ccc4cn[nH]c4c3)c2cc1OC [Example 102, 6,7-Dimethoxy-4-(1H-indazol-6-ylamino)-quinoline-3-carbonitrile] | – | > 56.4 | 1.31 (≈ 3.79 µM) | 2.18 (≈ 6.31 µM) | 0.78 (≈ 2.26 µM) | 0.49 (≈ 1.42 µM) | 14.1 µM | 1.49 (≈ 4.32 µM) | 3.05 (≈ 8.84 µM) | – | – | – | – | – | – | – | – | – | – |
| 6,7-Diethoxy-4-(1-oxo-indan-5-ylamino)-quinoline-3-carbonitrile [Example 110] | > 100 µM and 50 µM | – | – | – | – | – | – | – | – | – | – | – | – | 0.0244 | 0.0181 | 0.0281 | 0.0280 | 0.0923 | 0.0311 |

Continued, in another order:

| IC50 [1] | IC50 [2] [µM] | IC50 (A431) [µg/mL] | IC50 (SW620) [µg/mL] | IC50 (SK-BR3) [µg/mL] | IC50 (MDA-MB-435) [µg/mL] | IC50 [3] | IC50 (A2780) [µg/mL] | IC50 (DDP) [µg/mL] | Molecule | IC50 (3T3) [µg/mL] | IC50 (3T3/c-erbb2) [µg/mL] | inhibition at 0.5 µM ([4]; read-out: %Inh @ 0.5 µM) [%] | IC50 [4] [µM] | IC50 µg/mL A431 (A431) [µg/mL] | IC50 µg/mL SW620 (SW620) [µg/mL] | IC50 µg/mL SK-BR3 (SK-BR3) [µg/mL] | IC50 µg/mL MDA-MB-435 (MDA-MB-435) [µg/mL] | IC50 µg/mL 3T3 (3T3) [µg/mL] | IC50 µg/mL 3T3/c-erbb2 (3T3/c-erbb2) [µg/mL] |
| --- | --- | --- | --- | --- | --- | --- | --- | --- | --- | --- | --- | --- | --- | --- | --- | --- | --- | --- | --- |
| > 100 µM | > 47.5 | 0.257 (≈ 0.61 µM) | 0.146 (≈ 0.346 µM) | 0.336 (≈ 0.797 µM) | 0.0033 (≈ 0.00783 µM) | > 71.2 µM | – | – | CCOc1cc2ncc(C#N)c(Nc3ccc4c(c3)S(=O)(=O)C=C4)c2cc1OCC [Example 112, 4-(1,1-Dioxo-1H-benzo[b]thiophen-6-ylamino)-6,7-diethoxy-quinoline-3-carbonitrile] | 0.392 (≈ 0.93 µM) | 0.251 (≈ 0.596 µM) | – | – | – | – | – | – | – | – |
| > 100 µM | > 27.9 | 0.786 (≈ 2.19 µM) | 4.31 (≈ 12 µM) | 2.09 (≈ 5.83 µM) | 2.63 (≈ 7.31 µM) | 8.36 µM and > 2.79 µM | – | – | CCOc1cc2c(Nc3ccc4cn[nH]c4c3)c(C#N)cnc2cc1OC [Example 126, 6-Ethoxy-4-(1H-indazol-6-ylamino)-7-methoxyquinoline-3-carbonitrile] | 3.22 (≈ 8.96 µM) | 4.8 (≈ 13.4 µM) | – | 0.45 | – | – | – | – | – | – |
| 3.5 µM | > 48.2 | 0.369 (≈ 0.888 µM) | 0.325 (≈ 0.782 µM) | 0.429 (≈ 1.03 µM) | 0.067 (≈ 0.161 µM) | > 72.3 µM | 0.27 (≈ 0.65 µM) | 0.249 (≈ 0.599 µM) | CCOc1cc2ncc(C#N)c(Nc3ccc4c(C)cc(=O)oc4c3)c2cc1OCC [Example 100, 6,7-Diethoxy-4-(4-methyl-2-oxo-2H-chromen-7-ylamino)-quinoline-3-carbonitrile] | – | – | – | – | – | – | – | – | – | – |
